{
  "source": "patent US12128035B2",
  "about": "“Activating pyruvate kinase R” (Novo Nordisk Health Care AG, priority 2021, dated 2024)",
  "key": {"sickle RBCs [1]": {"test_system": "sickle RBCs", "assay": "Phase 1: Lorrca Osmoscan in SCD patients", "assay_type": "in vivo, human", "description": "(§1) In this study, SAD/MAD cohorts are randomized (3 to 1) to receive Compound 1 or placebo (P). Compound 1 was evaluated first in 4 healthy SAD cohorts and 4 healthy MAD (14-day dosing period) cohorts. Based on the safety, and PK/PD profile from HS, Compound 1 is then evaluated in 1 SCD SAD cohort and 2 SCD MAD cohorts. Specifically, based on the safety and pharmacokinetic/pharmacodynamics (PK/PD) profile in healthy volunteer studies, Compound 1 is evaluated in patients (pts) with SCD, first in a single dose (SD or SAD) cohort and then in multiple-dose (MD or MAD) cohorts (14-day and 12-week). Safety assessments include AEs, vital signs, ECGs and laboratory parameters. PK/PD blood sampling was performed on Day 1 (SAD/MAD) and Day 14 (MAD) and up to 72 h after the last dose and at the end-of-study visit. PD parameters included 2,3-DPG, ATP, and p50 in all cohorts with additional PD studies (including oxygen scan) performed only in the SCD cohorts. PD parameters included 2,3-DPG, ATP, p50, RBC deformability with controlled deoxygenation and reoxygenation (Lorrca® oxygen scan) and varying osmolality (Lorrca® osmoscan)). To maintain study blind, pt identifiers were removed when needed.\n(§2) Functional evaluation of RBCs was performed using Laser-Optical Rotational Red Cell Analyzer (Lorrca®) technology (RR Mechatronics, Zwaag, The Netherlands). Osmoscan was performed for healthy subjects, and both Oxygenscan and Osmoscan analyses were undertaken for the patients with SCD. In brief, the Oxygenscan allows for the measurement and visualisation of RBC elongation in shear stress in an oxygen gradient, during deoxygenation and re-oxygenation, expressed as the elongation index (EI). […] Evaluated Osmoscan parameters included: EImax; Omin (osmolality at ELmax; hypotonic region), which corresponds to the value of the hypotonic osmolality at which 50% of the cells hemolyse in an osmotic fragility assay and provides information on the initial surface-to-volume ratio of the RBCs; and Ohyper (osmolality corresponding to 50% of the EImax; hypertonic region), which correlates with the initial intracellular viscosity of the cell sample. […]\nThe effects of a single dose of Compound 1 (700 mg) versus placebo on oxygen scan, oxygen affinity (p50), and osmoscan in SCD patients were evaluated. […] In order to measure the impact of Compound 1 on this critical function, the effect of Compound 1 compared to placebo on the deformability of SCD RBCs across an osmolality gradient was evaluated. […]"}, "Human SCD cells": {"test_system": "Human SCD cells", "assay": "Ex vivo sickling under hypoxic conditions", "assay_type": "cell-based", "details": "for Net % of Sickled Cells / % Protection: 10 μM", "description": "Red blood cells from SCD patients were used to evaluate the effects of Compound 1 on Hgb affinity for oxygen (i.e., oxygen affinity) and sickling under hypoxic conditions. Cells were incubated at 37° C. for 1, 2, and 3 hr with HEPES buffered saline (HBS) (untreated), HBS+dimethyl sulfoxide (DMSO) (vehicle), or 10 μM Compound 1. To assess oxygen dissociation, Hgb oxygen equilibrium curves were collected during deoxygenation.\nCompound 1 (10 μM) reduced cell sickling under severe hypoxic conditions of 2% oxygen (PO2 of <20 mmHg) for up to 20 min (Table 8)."}, "sickle RBCs [2]": {"test_system": "sickle RBCs", "assay": "Phase 1: Lorrca Oxygenscan in SCD patients", "assay_type": "in vivo, human", "details": "SCD single 700 mg, Post-dose (24 hours), median (range)", "description": "as §1, with “To maintain study blind, pt identifiers were removed when needed.” left out\nas §2, with “Osmoscan was performed for healthy subjects, and both Oxygenscan and Osmoscan analyses were undertaken for the patients with SCD.” left out\nThe effects of a single dose of Compound 1 (700 mg) versus placebo on oxygen scan, oxygen affinity (p50), and osmoscan in SCD patients were evaluated. […]"}, "[3]": {"biological_target": "T1, PKR in mouse red blood cells (Mus musculus, UniProt P53657)", "T1 construct": "endogenous in cells; host or cells: mouse RBCs freshly isolated from whole blood", "assay": "Cell assay: PKR activation in mouse RBCs", "assay_type": "cell-based", "excerpt": "Mouse RBCs were isolated fresh from whole blood using a Ficoll gradient and assayed with methods similar to those used in the human RBCs assays."}, "[4]": {"test_system": "H295R adreno-cortical carcinoma cell line", "assay": "Steroid modulation screen in vitro", "assay_type": "cell-based", "details": "tested at 200 to 0.0002 μM; only at top concentration", "description": "To assess potential effects on steroidogenesis, Compound 1 was screened for steroid modulation in vitro using the H295R adreno-cortical carcinoma cell line (at 200 to 0.0002 μM) and in an assay to monitor cell viability (MTT Kit). Compound 1 indicated steroid modulation potential (% over vehicle) only at 200 μM, the top concentration tested, with 100% cellular viability at concentrations ≤20 μM (90% viability at 200 μM)."}},
  "note": "“And” between values parts separate entries of the source, which are not always exact repeats. Identical values can stand only once.",
  "data": [
    {"smiles": "O=C([C@H](CO)c1ccccc1)N1CC2=C(C1)CN(S(=O)(=O)c1cnc3c(c1)OCCO3)C2", "note": "(single isomer, unassigned) [Compound 1]", "values": [
      {"measurement": "EImax (Osmoscan)", "setting": "sickle RBCs [1]; SCD single 700 mg, Post-dose (24 hours), median (range), pre-dose 0.483 (0.46, 0.57)", "result": "0.478 (0.46, 0.57)"},
      {"measurement": "Omin (Osmoscan)", "setting": "sickle RBCs [1]; SCD single 700 mg, Post-dose (24 hours), median (range), pre-dose 108 (105, 121)", "result": "117 (106, 124)"},
      {"measurement": "Ohyper (Osmoscan)", "setting": "sickle RBCs [1]; SCD single 700 mg, Post-dose (24 hours), median (range), pre-dose 380 (371, 399)", "result": "400 (371, 412)"},
      {"measurement": "time to return to baseline of Oxygenscan/Osmoscan effects", "setting": "sickle RBCs [1]; SCD, after the single 700 mg dose", "result": "3 to 7", "unit": "days"},
      {"measurement": "Net % of Sickled Cells", "setting": "Human SCD cells; 0 min in hypoxic conditions (DMSO 7)", "result": 10, "unit": "%"},
      {"measurement": "% Protection", "setting": "Human SCD cells; 2 min in hypoxic conditions", "result": "−15", "unit": "%"},
      {"measurement": "Net % of Sickled Cells", "setting": "Human SCD cells; 2 min in hypoxic conditions (DMSO 41)", "result": 47, "unit": "%"},
      {"measurement": "% Protection", "setting": "Human SCD cells; 5 min in hypoxic conditions", "result": 14, "unit": "%"},
      {"measurement": "Net % of Sickled Cells", "setting": "Human SCD cells; 5 min in hypoxic conditions (DMSO 57)", "result": 49, "unit": "%"},
      {"measurement": "% Protection", "setting": "Human SCD cells; 10 min in hypoxic conditions", "result": 11, "unit": "%"},
      {"measurement": "Net % of Sickled Cells", "setting": "Human SCD cells; 10 min in hypoxic conditions (DMSO 61)", "result": 54, "unit": "%"},
      {"measurement": "% Protection", "setting": "Human SCD cells; 15 min in hypoxic conditions", "result": 16, "unit": "%"},
      {"measurement": "Net % of Sickled Cells", "setting": "Human SCD cells; 15 min in hypoxic conditions (DMSO 68)", "result": 57, "unit": "%"},
      {"measurement": "Net % of Sickled Cells", "setting": "Human SCD cells; 20 min in hypoxic conditions (DMSO 71)", "result": 60, "unit": "%"},
      {"measurement": "% Protection", "setting": "Human SCD cells; 20 min in hypoxic conditions (last time point)", "result": 15, "unit": "%"},
      {"measurement": "percent protection (maximum)", "setting": "Human SCD cells; severe hypoxic conditions of 2% oxygen", "result": "up to 16%"},
      {"measurement": "EImin (Oxygenscan)", "setting": "sickle RBCs [2]; pre-dose 0.193 (0.16, 0.21)", "result": "0.296 (0.26, 0.38)"},
      {"measurement": "EImax (Oxygenscan)", "setting": "sickle RBCs [2]; pre-dose 0.445 (0.41, 0.51)", "result": "0.451 (0.42, 0.52)"},
      {"measurement": "POS (Oxygenscan)", "setting": "sickle RBCs [2]; pre-dose 35.4 (27.3, 38.8)", "result": "24.0 (17.9, 31.8)"},
      {"measurement": "Max − Min (%), Mean", "setting": "[3]; mean of replicates", "result": "<100", "unit": "%"},
      {"measurement": "Max − Min (%)", "setting": "[3]; single replicates", "result": "<50% and <100%"},
      {"measurement": "concentration indicating steroid modulation potential (% over vehicle)", "setting": "[4]", "result": 200, "unit": "µM"}
    ]}
  ]
}
